The results in this text go back to patent US20260347364A1, “PYRAZOLO[4,3-F]QUINAZOLINE DERIVATIVES AS MODULATORS OF G12D MUTANT KRAS USEFUL FOR THE TREATMENT OF CANCER” (JAZZ PHARMACEUTICALS IRELAND LTD., priority 2023, published 2026).

One assay addresses T1, KRAS WT (Homo sapiens, UniProt P01116).
T1 construct: aa1-188 KRAS WT
Description: HTRF nucleotide exchange assay, KRAS WT. The format is biochemical. As to conditions: class symbols; for IC50: HTRF nucleotide exchange assay (NEA).

A further assay has as its target T2, KRAS G12D (Homo sapiens, UniProt P01116, G12D).
T2 construct: aa1-188 KRAS WT, HRAS WT, NRAS WT, or KRAS containing the G12D
Description: HTRF nucleotide exchange assay, KRAS G12D. In kind it is biochemical. The following applies: class symbols; for IC50: HTRF nucleotide exchange assay (NEA).

On to `CCc1c(F)ccc2cc(O)cc(-c3c(F)c4nc(OCC5(CN(C)C)CCC5)nc(N5CCOCC(C)(O)C5)c4c4cn(C)nc34)c12` (stereo not shown) [Example 222, 4-[7-[[1-[(dimethylamino)methyl]cyclobutyl]methoxy]-4-(8-ethyl-7-fluoro-3-hydroxy-1-naphthyl)-5-fluoro-2-methyl-pyrazolo[4,3-f]quinazolin-9-yl]-6-methyl-1,4-oxazepan-6-ol], for which the 50% inhibitory concentration (IC50) against KRAS WT and at KRAS G12D was not above 10 nM in each case.
Regarding `CN(C)C(=O)c1cc2n(n1)CCCN(c1nc(OC[C@@]34CCCN3C[C@H](F)C4)nc3cc(-c4cc(O)ccc4C#N)c4nn(C)cc4c13)C2` [Example 62], the half-maximal inhibitory concentration (IC50) against KRAS WT was in the range of 100 to 10000 nM; on KRAS G12D it was 10 to 100 nM.
For `C#Cc1c(F)ccc2cc(O)cc(-c3cc4nc(OC[C@@]56CCCN5C[C@H](F)C6)nc(N5CCCn6nc(C(=O)N(C)C)cc6C5)c4c4cn(C)nc34)c12` [Example 65, 5-[4-(8-ethynyl-7-fluoro-3-hydroxy-1-naphthyl)-2-methyl-7-[[(2R,8S)-2-fluoro-1,2,3,5,6,7-hexahydropyrrolizin-8-yl]methoxy]pyrazolo[4,3-f]quinazolin-9-yl]-N,N-dimethyl-4,6,7,8-tetrahydropyrazolo[1,5-a][1,4]diazepine-2-carboxamide] the same measures were not above 10 nM and not above 10 nM.
For `CCc1c(F)ccc2cc(O)cc(-c3c(F)c4nc(OC[C@@]56CCCN5C[C@H](F)C6)nc(N5CCCC(C)(O)C5)c4c4cn(C)nc34)c12` (stereo partly drawn) [Example 100, (3R)-1-[4-bromo-5-fluoro-2-methyl-7-[[(2R,8S)-2-fluoro-1,2,3,5,6,7-hexahydropyrrolizin-8-yl]methoxy]pyrazolo[4,3-f]quinazolin-9-yl]-3-methyl-piperidin-3-ol] the same measures were not above 10 nM and not above 10 nM.
For `CCc1c(F)ccc2cc(O)cc(-c3cc4nc(OCC5CCCCN5C)nc(N5CCCOCC5)c4c4cn(C)nc34)c12` (stereo not shown) [Example 19, 5-ethyl-6-fluoro-4-[2-methyl-7-[(1-methyl-2-piperidyl)methoxy]-(1,4-oxazepan-4-yl)pyrazolo[4,3-f]quinazolin-4-yl]naphthalen-2-ol] the same measures were 100 to 10000 nM and 100 to 10000 nM.
For the compound `CCc1c(F)ccc2cc(O)cc(-c3c(F)c4nc(OCC5(CN6CCC(F)(F)C6)CC5)nc(N5CCOCC(C)(O)C5)c4c4cn(C)nc34)c12` (stereo not shown) [Example 189, 4-[7-[[1-[(3,3-difluoropyrrolidin-1-yl)methyl]cyclopropyl]methoxy]-4-(8-ethyl-7-fluoro-3-hydroxy-1-naphthyl)-5-fluoro-2-methyl-pyrazolo[4,3-f]quinazolin-9-yl]-6-methyl-1,4-oxazepan-6-ol], the IC50 at KRAS WT and on KRAS G12D was 10 to 100 nM in each case.
With `CCc1c(F)ccc2cc(O)cc(-c3c(F)c4nc(OCC5(CN6CCC(OC)CC6)CC5)nc(N5CCOCC(C)(O)C5)c4c4cn(C)nc34)c12` (stereo not shown) [Example 187, 4-[4-(8-ethyl-7-fluoro-3-hydroxy-1-naphthyl)-5-fluoro-7-[[1-[(4-methoxy-1-piperidyl)methyl]cyclopropyl]methoxy]-2-methyl-pyrazolo[4,3-f]quinazolin-9-yl]-6-methyl-1,4-oxazepan-6-ol], the IC50 against KRAS WT and against KRAS G12D was not above 10 nM in each case.
As to `CCc1c(F)ccc2cc(O)cc(-c3c(F)c4nc(OCC5COCCN5C)nc(N5CCOCC(C)(O)C5)c4c4cn(C)nc34)c12` (stereo not shown) [Example 232, 4-[4-(8-ethyl-7-fluoro-3-hydroxy-1-naphthyl)-5-fluoro-2-methyl-7-[(4-methylmorpholin-3-yl)methoxy]pyrazolo[4,3-f]quinazolin-9-yl]-6-methyl-1,4-oxazepan-6-ol], the half-inhibitory concentration (IC50) against KRAS WT and at KRAS G12D was 10 to 100 nM each time.
For the compound `CCc1c(F)ccc2cc(O)cc(-c3c(F)c4nc(OCC5(CN6CC[C@@H](F)C6)CC5)nc(N5CCOCC(C)(O)C5)c4c4cn(C)nc34)c12` (stereo partly drawn) [Example 193, 4-[4-(8-ethyl-7-fluoro-3-hydroxy-1-naphthyl)-5-fluoro-2-methyl-7-[[1-[[(3R)-3-fluoropyrrolidin-1-yl]methyl]cyclopropyl]methoxy]pyrazolo[4,3-f]quinazolin-9-yl]-6-methyl-1,4-oxazepan-6-ol], the IC50 on KRAS WT and against KRAS G12D was not above 10 nM throughout.
With `CCc1c(F)ccc2cc(O)cc(-c3cc4nc(OCC5CCCN(C)C5)nc(N5CCCOCC5)c4c4cn(C)nc34)c12` (stereo not shown) [Example 32, 5-ethyl-6-fluoro-4-[2-methyl-7-[(1-methyl-3-piperidyl)methoxy]-9-(1,4-oxazepan-4-yl)pyrazolo[4,3-f]quinazolin-4-yl]naphthalen-2-ol], the IC50 at KRAS WT and at KRAS G12D was 100 to 10000 nM throughout.
For the compound `CCc1c(F)ccc2cc(O)cc(-c3cc4nc(OC[C@@]56CCCN5C[C@H](F)C6)nc(N5CCCC(CO)C5)c4c4cn(C)nc34)c12` (stereo partly drawn) [Example 114, 5-ethyl-6-fluoro-4-[9-[3-(hydroxymethyl)-1-piperidyl]-2-methyl-7-[[(2R,8S)-2-fluoro-1,2,3,5,6,7-hexahydropyrrolizin-8-yl]methoxy]pyrazolo[4,3-f]quinazolin-4-yl]naphthalen-2-ol], the IC50 at KRAS WT is 10 to 100 nM; against KRAS G12D, not above 10 nM.
As to `CCc1c(F)ccc2cc(O)cc(-c3c(F)c4nc(OCC5(CN6CC7CC7C6)CC5)nc(N5CCOCC(C)(O)C5)c4c4cn(C)nc34)c12` (stereo not shown) [Example 221, 4-[7-[[1-(3-azabicyclo[3.1.0]hexan-3-ylmethyl)cyclopropyl]methoxy]-4-(8-ethyl-7-fluoro-3-hydroxy-1-naphthyl)-5-fluoro-2-methyl-pyrazolo[4,3-f]quinazolin-9-yl]-6-methyl-1,4-oxazepan-6-ol], the concentration for half-maximal inhibition (IC50) against KRAS WT and on KRAS G12D was not above 10 nM throughout.
With `Cn1cc2c(n1)c(-c1ncc(F)c3sc(N)c(C#N)c13)cc1nc(OC[C@@]34CCCN3C[C@H](F)C4)nc(N3CCC[C@@](C)(O)C3)c12` [Example 106, 2-amino-7-fluoro-4-[2-methyl-7-[[(2R,8S)-2-fluoro-1,2,3,5,6,7-hexahydropyrrolizin-8-yl]methoxy]-9-[(3R)-3-hydroxy-3-methyl-1-piperidyl]pyrazolo[4,3-f]quinazolin-4-yl]thieno[3,2-c]pyridine-3-carbonitrile], the “KRAS^WT NEA” value at KRAS WT is on record as “D (<49% inhibition at 10 μM)”. Further, the “KRAS^G12D NEA” value on KRAS G12D was “D (<49% inhibition at 10 μM)”.
Turning to `CCc1c(F)ccc2cc(O)cc(-c3c(F)c4nc(OCC5(CN6CC(C#N)C6)CC5)nc(N5CCOCC(C)(O)C5)c4c4cn(C)nc34)c12` (stereo not shown) [Example 171, 1-[[1-[[4-(8-ethyl-7-fluoro-3-hydroxy-1-naphthyl)-5-fluoro-9-(6-hydroxy-6-methyl-1,4-oxazepan-4-yl)-2-methyl-pyrazolo[4,3-f]quinazolin-7-yl]oxymethyl]cyclopropyl]methyl]azetidine-3-carbonitrile], the half-inhibitory concentration (IC50) on KRAS WT and against KRAS G12D was not above 10 nM each time.
`CCc1c(F)ccc2cc(O)cc(-c3c(F)c4nc(OC[C@@]56CCCN5C[C@H](F)C6)nc(N5CCCn6nc(C(=O)N(C)C)cc6C5)c4c4cn(C)nc34)c12` [Example 87, 5-[4-(8-ethyl-7-fluoro-3-hydroxy-1-naphthyl)-5-fluoro-2-methyl-7-[[(2R,8S)-2-fluoro-1,2,3,5,6,7-hexahydropyrrolizin-8-yl]methoxy]pyrazolo[4,3-f]quinazolin-9-yl]-N,N-dimethyl-4,6,7,8-tetrahydropyrazolo[1,5-a][1,4]diazepine-2-carboxamide]: the 50% inhibitory concentration (IC50) against KRAS WT and at KRAS G12D was not above 10 nM each time.
On to `CN(C)C(=O)c1cc2n(n1)CCCN(c1nc(OC[C@@]34CCCN3C[C@H](F)C4)nc3cc(-c4cccc5[nH]nc(C#N)c45)c4nn(C)cc4c13)C2` [Example 83, 5-[4-(3-cyano-1H-indazol-4-yl)-2-methyl-7-[[(2R,8S)-2-fluoro-1,2,3,5,6,7-hexahydropyrrolizin-8-yl]methoxy]pyrazolo[4,3-f]quinazolin-9-yl]-N,N-dimethyl-4,6,7,8-tetrahydropyrazolo[1,5-a][1,4]diazepine-2-carboxamide], for which, on KRAS WT, the “KRAS^WT NEA” value was “D (<49% inhibition at 10 μM)”. Moreover, the “KRAS^G12D NEA” value on KRAS G12D was “D (<49% inhibition at 10 μM)”.
Consider `CCc1c(F)ccc2cc(O)cc(-c3c(F)c4nc(OCC5(CN6CCOC(C(F)(F)F)C6)CC5)nc(N5CCOCC(C)(O)C5)c4c4cn(C)nc34)c12` (stereo not shown) [Example 219, 4-[4-(8-ethyl-7-fluoro-3-hydroxy-1-naphthyl)-5-fluoro-2-methyl-7-[[1-[[2-(trifluoromethyl)morpholin-4-yl]methyl]cyclopropyl]methoxy]pyrazolo[4,3-f]quinazolin-9-yl]-6-methyl-1,4-oxazepan-6-ol], for which the half-inhibitory concentration (IC50) at KRAS WT and against KRAS G12D was 100 to 10000 nM throughout.
In the case of `Cc1cc2[nH]ncc2c(-c2cc3nc(OC[C@@]45CCCN4C[C@H](F)C5)nc(N4CCCn5nc(C(=O)N(C)C)cc5C4)c3c3cn(C)nc23)c1C` [Example 60, 5-[4-(5,6-dimethyl-1H-indazol-4-yl)-2-methyl-7-[[(2R,8S)-2-fluoro-1,2,3,5,6,7-hexahydropyrrolizin-8-yl]methoxy]pyrazolo[4,3-f]quinazolin-9-yl]-N,N-dimethyl-4,6,7,8-tetrahydropyrazolo[1,5-a][1,4]diazepine-2-carboxamide], the half-inhibitory concentration (IC50) on KRAS WT is 100 to 10000 nM; on KRAS G12D, 10 to 100 nM.
As to `CCc1c(F)ccc2cc(O)cc(-c3cc4nc(OC[C@@]56CCCN5C[C@H](F)C6)nc(N5CCC(CO)CC5)c4c4cn(C)nc34)c12` [Example 113, 5-ethyl-6-fluoro-4-[9-[4-(hydroxymethyl)-1-piperidyl]-2-methyl-7-[[(2R,8S)-2-fluoro-1,2,3,5,6,7-hexahydropyrrolizin-8-yl]methoxy]pyrazolo[4,3-f]quinazolin-4-yl]naphthalen-2-ol], the IC50 was in the range of 10 to 100 nM against KRAS WT and 100 to 10000 nM against KRAS G12D.
For `CCc1c(F)ccc2cc(O)cc(-c3c(F)c4nc(OCC5(CN6CCC(O)CC6)CC5)nc(N5CCOCC(C)(O)C5)c4c4cn(C)nc34)c12` (stereo not shown) [Example 213, 4-[4-(8-ethyl-7-fluoro-3-hydroxy-1-naphthyl)-5-fluoro-7-[[1-[(4-hydroxy-1-piperidyl)methyl]cyclopropyl]methoxy]-2-methyl-pyrazolo[4,3-f]quinazolin-9-yl]-6-methyl-1,4-oxazepan-6-ol] the same measures were not above 10 nM and not above 10 nM.
